Assays:
[1] = Cytotoxicity against human WI-38 VA13 cells assessed as cell growth inhibition incubated for 5 days by MTT assay; assay type: toxicity, cell-based; settings: time 5 day
[2] = target: Glutamate carboxypeptidase 2 (Homo sapiens, UniProt Q04609); test: Inhibition of PSMA derived from human LNCaP cell lysate assessed as inhibition of NAAG hydrolysis incubated for 2 hrs in presence of NAAG by Amplex Red assay; assay type: subcellular
[3] = Cytotoxicity against HEK293T cells assessed as cell growth inhibition incubated for 5 days by MTT assay; assay type: toxicity, cell-based, HEK-293T; settings: human, time 5 day
A549 = test: Cytotoxicity against human A549 cells assessed as cell growth inhibition incubated for 5 days by MTT assay; assay type: functional; settings: A549, 120 h, time 5 day
MCF7 = test: Cytotoxicity against human MCF7 cells assessed as cell growth inhibition incubated for 5 days by MTT assay; assay type: functional; settings: MCF7, 120 h, time 5 day
[4] = Chronic toxicity in Soviet Chinchilla rabbit assessed as change in spleen histology at 120 to 243 mg/kg, iv administered once every 3 weeks; assay type: organism-based, Oryctolagus cuniculus; settings: in vivo, 504 h, dose 120-243 mg/kg
[5] = Chronic toxicity in Soviet Chinchilla rabbit assessed as change in brain histology at 120 to 243 mg/kg, iv administered once every 3 weeks; assay type: organism-based, Oryctolagus cuniculus; settings: in vivo, 504 h, dose 120-243 mg/kg
LNCaP = test: Cytotoxicity against human LNCaP cells assessed as reduction in cell viability incubated for 5 days by MTT assay; assay type: functional; settings: 120 h, time 5 day
PC-3 = test: Cytotoxicity against human PC-3 cells assessed as reduction in cell viability incubated for 5 days by MTT assay; assay type: functional; settings: PC-3, 120 h, time 5 day
[6] = Chronic toxicity in Soviet Chinchilla rabbit assessed as change in kidney histology at 120 to 243 mg/kg, iv administered once every 3 weeks; assay type: organism-based, Oryctolagus cuniculus; settings: in vivo, 504 h, dose 120-243 mg/kg
[7] = Chronic toxicity in Soviet Chinchilla rabbit assessed as change in blood albumin content at 120 to 243 mg/kg, iv administered once every 3 weeks; assay type: organism-based, Oryctolagus cuniculus; settings: in vivo, 504 h, dose 120-243 mg/kg
[8] = Chronic toxicity in Soviet Chinchilla rabbit assessed as change in liver histology at 120 to 243 mg/kg, iv administered once every 3 weeks; assay type: organism-based, Oryctolagus cuniculus; settings: in vivo, 504 h, dose 120-243 mg/kg
[9] = Chronic toxicity in Soviet Chinchilla rabbit assessed as change in lung histology at 120 to 243 mg/kg, iv administered once every 3 weeks; assay type: organism-based, Oryctolagus cuniculus; settings: in vivo, 504 h, dose 120-243 mg/kg
[10] = Chronic toxicity in Soviet Chinchilla rabbit assessed as signs of intoxication at 120 to 243 mg/kg, iv administered once every 3 weeks; assay type: organism-based, Oryctolagus cuniculus; settings: in vivo, 504 h, dose 120-243 mg/kg
[11] = Chronic toxicity in Soviet Chinchilla rabbit assessed as change in heart histology at 120 to 243 mg/kg, iv administered once every 3 weeks; assay type: organism-based, Oryctolagus cuniculus; settings: in vivo, 504 h, dose 120-243 mg/kg
[12] = Drug uptake in human LNCaP cells assessed as drug accumulation by measuring fluorescence signal at 4 uM incubated for 30 mins by flow cytometry; assay type: ADME, cell-based; settings: 0.5 h
[13] = Drug uptake in human 22Rv1 cells assessed as drug accumulation by measuring fluorescence signal at 4 uM incubated for 30 mins by flow cytometry; assay type: ADME, cell-based; settings: cwr22r, 0.5 h
[14] = Drug uptake in human PC-3 cells assessed as drug accumulation by measuring fluorescence signal at 4 uM incubated for 30 mins by flow cytometry; assay type: ADME, cell-based; settings: pc-3, 0.5 h

Glutamate carboxypeptidase 2, sequence (Q04609 whole entry): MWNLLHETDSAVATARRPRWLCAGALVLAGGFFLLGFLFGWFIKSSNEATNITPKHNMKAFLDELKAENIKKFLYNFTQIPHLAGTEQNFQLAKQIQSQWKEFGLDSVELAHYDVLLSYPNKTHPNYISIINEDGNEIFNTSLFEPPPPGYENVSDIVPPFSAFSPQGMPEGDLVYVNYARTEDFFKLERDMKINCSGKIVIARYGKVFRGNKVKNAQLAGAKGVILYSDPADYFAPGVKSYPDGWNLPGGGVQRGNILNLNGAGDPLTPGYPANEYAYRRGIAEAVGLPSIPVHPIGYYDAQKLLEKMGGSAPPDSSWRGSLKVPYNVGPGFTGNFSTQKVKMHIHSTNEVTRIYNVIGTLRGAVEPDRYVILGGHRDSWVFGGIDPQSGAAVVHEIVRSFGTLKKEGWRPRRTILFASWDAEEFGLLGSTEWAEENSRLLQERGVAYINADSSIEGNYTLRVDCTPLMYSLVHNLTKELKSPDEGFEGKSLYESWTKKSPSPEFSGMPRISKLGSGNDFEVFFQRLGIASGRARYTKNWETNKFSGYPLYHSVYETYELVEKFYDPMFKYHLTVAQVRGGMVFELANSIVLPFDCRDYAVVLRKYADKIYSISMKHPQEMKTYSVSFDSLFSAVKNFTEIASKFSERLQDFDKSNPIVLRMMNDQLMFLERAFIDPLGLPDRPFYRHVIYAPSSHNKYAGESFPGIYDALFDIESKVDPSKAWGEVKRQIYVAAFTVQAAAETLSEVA

SMILES | IC50 [2] [µM] | CC50 at 120 h [1] [µM] | CC50 at 120 h [3] [µM] | CC50 (A549) [µM] | CC50 (MCF7) [µM] | other results
[N-]=[N+]=NCCCNC(=O)[C@H](Cc1ccccc1)NC(=O)[C@H](Cc1ccccc1)NC(=O)CCC(=O)NCCCCCC(=O)N(CCCC[C@H](NC(=O)N[C@@H](CCC(=O)O)C(=O)O)C(=O)O)Cc1ccccc1 | 0.028 | > 100 | 114 | > 100 | > 100 | 
[N-]=[N+]=NCCCNC(=O)[C@H](Cc1ccccc1)NC(=O)[C@H](Cc1ccccc1)NC(=O)CCC(=O)NCCCCCC(=O)N(CCCC[C@H](NC(=O)N[C@@H](CCC(=O)O)C(=O)O)C(=O)O)Cc1ccc(Cl)cc1 | 0.055 |  |  |  |  | 
NCCCC[C@H](NC(=O)N[C@@H](CCC(=O)O)C(=O)O)C(=O)O |  | > 100 | > 100 | > 100 | > 100 | 
CN1/C(=C/C=C2C=C(/C=C/C3=[N+](CCCCCC(=O)O)c4ccc(S(=O)(=O)[O-])cc4C3(C)C)CCC/2)C(C)(C)c2cc(S(=O)(=O)O)ccc21 |  |  |  |  |  | Activity [4]: Non-Toxic; Activity [5]: Non-Toxic; CC50 (LNCaP): > 100 µM; CC50 (PC-3): > 100 µM; Activity [6]: Non-Toxic; Activity [7]: Toxic; Activity [8]: Non-Toxic; Activity [9]: Non-Toxic; Activity [10]: Non-Toxic; Activity [11]: Non-Toxic
[N-]=[N+]=NCCCNC(=O)[C@H](Cc1ccccc1)NC(=O)[C@H](Cc1ccccc1)NC(=O)CCC(=O)NCCCCCC(=O)NCCCC[C@H](NC(=O)N[C@@H](CCC(=O)O)C(=O)O)C(=O)O |  | > 100 | 62 | > 100 | > 100 | 
[N-]=[N+]=NCCCNC(=O)[C@H](Cc1ccc(O)cc1)NC(=O)[C@H](Cc1ccccc1)NC(=O)CCC(=O)NCCCCCC(=O)N(CCCC[C@H](NC(=O)N[C@@H](CCC(=O)O)C(=O)O)C(=O)O)Cc1ccc(Cl)c(F)c1 | 0.062 | > 100 | > 100 | > 100 | > 100 | 
[N-]=[N+]=NCCCNC(=O)[C@H](Cc1ccc(O)cc1)NC(=O)[C@H](Cc1ccccc1)NC(=O)CCC(=O)NCCCCCC(=O)N(CCCC[C@H](NC(=O)N[C@@H](CCC(=O)O)C(=O)O)C(=O)O)Cc1ccc(Cl)cc1 | 0.046 |  |  |  |  | 
[N-]=[N+]=NCCCNC(=O)[C@@H](Cc1ccccc1)NC(=O)[C@@H](Cc1ccccc1)NC(=O)CCC(=O)NCCCCCC(=O)N(CCCC[C@H](NC(=O)N[C@@H](CCC(=O)O)C(=O)O)C(=O)O)Cc1ccc(Cl)c(F)c1 | 0.294 | > 100 | 51 | > 100 | > 100 | 
[N-]=[N+]=NCCCNC(=O)[C@H](Cc1ccccc1)NC(=O)[C@H](Cc1ccccc1)NC(=O)CCC(=O)NCCCCCC(=O)N(CCCC[C@H](NC(=O)N[C@@H](CCC(=O)O)C(=O)O)C(=O)O)Cc1cccc(Cl)c1 | 0.038 |  |  |  |  | 
[N-]=[N+]=NCCCNC(=O)[C@H](Cc1ccccc1)NC(=O)[C@H](Cc1ccccc1)NC(=O)CCC(=O)NCCCCCC(=O)N(CCCC[C@H](NC(=O)N[C@@H](CCC(=O)O)C(=O)O)C(=O)O)Cc1ccc(Cl)cc1F | 0.043 | > 100 | > 100 | > 100 | > 100 | 
[N-]=[N+]=NCCCNC(=O)[C@@H](Cc1ccccc1)NC(=O)[C@@H](Cc1ccccc1)NC(=O)CCC(=O)NCCCCCC(=O)N(CCCC[C@H](NC(=O)N[C@@H](CCC(=O)O)C(=O)O)C(=O)O)Cc1cccc(Cl)c1 | 0.046 |  |  |  |  | 
CN1/C(=C/C=C/C=C/C2=[N+](CCCCCC(=O)O)c3ccc(S(=O)(=O)[O-])cc3C2(C)C)C(C)(C)c2cc(S(=O)(=O)O)ccc21 |  |  |  |  |  | CC50 (LNCaP): > 100 µM; Drug uptake [12]: 98.4%; CC50 (PC-3): > 100 µM; Drug uptake [13]: 57.5%; Drug uptake [14]: 41.1%
[N-]=[N+]=NCCCNC(=O)[C@@H](Cc1ccccc1)NC(=O)[C@@H](Cc1ccccc1)NC(=O)CCC(=O)NCCCCCC(=O)N(CCCC[C@H](NC(=O)N[C@@H](CCC(=O)O)C(=O)O)C(=O)O)Cc1ccc(Cl)cc1 | 0.226 |  |  |  |  | 
[N-]=[N+]=NCCCNC(=O)[C@@H](Cc1ccccc1)NC(=O)[C@@H](Cc1ccccc1)NC(=O)CCC(=O)NCCCCCC(=O)N(CCCC[C@H](NC(=O)N[C@@H](CCC(=O)O)C(=O)O)C(=O)O)Cc1ccc(Br)cc1 | 0.319 | > 100 | 88 | > 100 | > 100 | 
[N-]=[N+]=NCCCNC(=O)[C@@H](Cc1ccc(O)cc1)NC(=O)[C@@H](Cc1ccccc1)NC(=O)CCC(=O)NCCCCCC(=O)N(CCCC[C@H](NC(=O)N[C@@H](CCC(=O)O)C(=O)O)C(=O)O)Cc1ccc(Cl)cc1 | 0.027 |  |  |  |  | 
[N-]=[N+]=NCCCNC(=O)[C@@H](Cc1ccc(O)c(Br)c1)NC(=O)[C@@H](Cc1ccccc1)NC(=O)CCC(=O)NCCCCCC(=O)N(CCCC[C@H](NC(=O)N[C@@H](CCC(=O)O)C(=O)O)C(=O)O)Cc1ccc(Br)cc1 | 0.089 |  |  |  |  | 
[N-]=[N+]=NCCCNC(=O)[C@@H](Cc1ccc(O)cc1)NC(=O)[C@@H](Cc1ccccc1)NC(=O)CCC(=O)NCCCCCC(=O)N(CCCC[C@H](NC(=O)N[C@@H](CCC(=O)O)C(=O)O)C(=O)O)Cc1ccc(Cl)c(F)c1 | 0.108 |  |  |  |  | 

More lines, main results first:

IC50 [2] [µM] | SMILES | CC50 at 120 h [1] [µM] | CC50 at 120 h [3] [µM] | CC50 (A549) [µM] | CC50 (MCF7) [µM] | other results
0.05 | [N-]=[N+]=NCCCNC(=O)[C@H](Cc1ccccc1)NC(=O)[C@H](Cc1ccccc1)NC(=O)CCC(=O)NCCCCCC(=O)N(CCCC[C@H](NC(=O)N[C@@H](CCC(=O)O)C(=O)O)C(=O)O)Cc1ccc(Br)cc1 | > 100 | > 100 | > 100 | > 100 | 
0.08 | [N-]=[N+]=NCCCNC(=O)[C@@H](Cc1ccc(O)c(Br)c1)NC(=O)[C@@H](Cc1ccccc1)NC(=O)CCC(=O)NCCCCCC(=O)N(CCCC[C@H](NC(=O)N[C@@H](CCC(=O)O)C(=O)O)C(=O)O)Cc1cccc(Cl)c1 |  |  |  |  | 
0.175 | [N-]=[N+]=NCCCNC(=O)[C@H](Cc1ccccc1)NC(=O)[C@H](Cc1ccccc1)NC(=O)CCC(=O)NCCCC(=O)N(CCCC[C@H](NC(=O)N[C@@H](CCC(=O)O)C(=O)O)C(=O)O)Cc1ccccc1 | > 100 | > 100 | > 100 | > 100 | 
0.003 | [N-]=[N+]=NCCCNC(=O)[C@H](Cc1ccc(O)cc1)NC(=O)[C@H](Cc1ccccc1)NC(=O)CCC(=O)NCCCCCC(=O)N(CCCC[C@H](NC(=O)N[C@@H](CCC(=O)O)C(=O)O)C(=O)O)Cc1cccc(Cl)c1 | > 100 | > 100 | > 100 | > 100 | CC50 (LNCaP): > 100 µM; Ki [2]: 0.001 µM; CC50 (PC-3): > 100 µM
0.063 | [N-]=[N+]=NCCCNC(=O)[C@H](Cc1ccccc1)NC(=O)[C@H](Cc1ccccc1)NC(=O)CCC(=O)NCCCCCC(=O)N(CCCC[C@H](NC(=O)N[C@@H](CCC(=O)O)C(=O)O)C(=O)O)Cc1ccc(Cl)c(F)c1 | > 100 | 71 | > 100 | > 100 | 
0.017 | [N-]=[N+]=NCCCNC(=O)[C@H](Cc1ccc(O)cc1)NC(=O)[C@H](Cc1ccccc1)NC(=O)CCC(=O)NCCCCCC(=O)N(CCCC[C@H](NC(=O)N[C@@H](CCC(=O)O)C(=O)O)C(=O)O)Cc1ccc(Br)cc1 | > 100 | > 100 | > 100 | > 100 | 
3.16 | [N-]=[N+]=NCCCNC(=O)[C@@H](Cc1ccc(O)cc1)NC(=O)[C@@H](Cc1ccccc1)NC(=O)CCC(=O)NCCCCCC(=O)N(CCCC[C@H](NC(=O)N[C@@H](CCC(=O)O)C(=O)O)C(=O)O)Cc1ccc(Br)cc1 |  |  |  |  | 
0.107 | [N-]=[N+]=NCCCNC(=O)[C@@H](Cc1ccc(O)cc1)NC(=O)[C@@H](Cc1ccccc1)NC(=O)CCC(=O)NCCCCCC(=O)N(CCCC[C@H](NC(=O)N[C@@H](CCC(=O)O)C(=O)O)C(=O)O)Cc1cccc(Cl)c1 |  |  |  |  | 
